Laboratory results from patent publication US8178506B2, “Oligomeric compounds and compositions for use in modulation of small non-coding RNAs” (Regulus Therapeutics Inc., priority 2003, dated 2012).
“And” between values parts separate entries of the source, which are not always exact repeats. Equal values may be shown once. In the oligonucleotide strings, read from the 5' end, every base follows the letter of its sugar. An asterisk marks phosphorothioate; unmarked linkages are phosphodiester. Other units and linkages are bracketed, terminal groups are in braces. A string of capitals states the bases alone. e = 2'-O-(2-methoxyethyl) (MOE); [5mC] = 5-methylcytosine

Key:
Assay type in all cases: cell-based, human
leptin = test: Leptin secretion by adipocytes (ELISA); conditions: adipocytes, 250 nM oligomeric compound, day nine post-transfection, relative to control (1.0); Table 16
Procedure: Leptin secretion into the medium in which adipocytes are cultured is measured by protein ELISA. On day nine post-transfection, 96-well plates are coated with a monoclonal antibody to human leptin (R&D Systems, Minneapolis, Minn.) and left at 4° C. overnight. The plates are blocked with bovine serum albumin (BSA), and a dilution of the treated adipoctye medium is incubated in the plate at room temperature for approximately 2 hours. After washing to remove unbound components, a second monoclonal antibody to human leptin (conjugated with biotin) is added. The plate is then incubated with strepavidin-conjugated horse radish peroxidase (HRP) and enzyme levels are determined by incubation with 3, 3′,5,5′-tetramethlybenzidine, which turns blue when cleaved by HRP. The OD450 is read for each well, where the dye absorbance is proportional to the leptin concentration in the cell lysate.
Leptin is also a marker for differentiated adipocytes. In the adipocyte assay, leptin secretion into the media above the differentiated adipocytes was measured by protein ELISA. Cell growth, transfection and differentiation procedures were carried out as described for the Triglyceride accumulation assay (see below). On day nine post-transfection, 96-well plates were coated with a monoclonal antibody to human leptin (R&D Systems, Minneapolis, Minn.) and left at 4° C. overnight. The plates were blocked with bovine serum albumin (BSA), and a dilution of the media was incubated in the plate at RT for 2 hours. After washing to remove unbound components, a second monoclonal antibody to human leptin (conjugated with biotin) was added. The plate was then incubated with strepavidin-conjugated horseradish peroxidase (HRP) and enzyme levels are determined by incubation with 3, 3′, 5,5′-Tetramethlybenzidine, which turns blue when cleaved by HRP. The OD450 was read for each well, where the dye absorbance is proportional to the leptin concentration in the cell lysate. Results are expressed as a percent±standard deviation relative to transfectant-only controls.

preadipocytes = test: Caspase assay in preadipocytes; conditions: for Fold Increase over UTC (caspase activity): untreated control set equal to 1.0
Source text: The effect of oligomeric compounds of the present invention targeting miRNAs was examined in preadipocytes (Zen-Bio, Inc., Research Triangle Park, N.C.) using the fluorometric caspase assay previously described in Example 11.

HeLa cells = test: Cell cycle assay in HeLa cells; conditions: HeLa cells, 150 nM oligomeric compound; for % cells aneuploid / % cells in cell cycle phase G1 / % cells in cell cycle phase G2/M / % cells in cell cycle phase S / % cells in cell cycle phase subG1: 24 hours, relative to untreated control (UTC = 100); for % cells in cell cycle phase: G1 / % cells in cell cycle phase: G2/M / % cells in cell cycle phase: S / % cells in cell cycle phase: aneuploid / % cells in cell cycle phase: subG1: 48 hours after treatment, relative to untreated control (UTC=100)

| Substance | Leptin (secretion) (leptin) | Fold Increase over UTC (caspase activity) (preadipocytes) [fold over UTC] | % cells aneuploid (HeLa cells) | % cells in cell cycle phase G1 (HeLa cells) | % cells in cell cycle phase G2/M (HeLa cells) | % cells in cell cycle phase S (HeLa cells) | % cells in cell cycle phase subG1 (HeLa cells) | % cells in cell cycle phase: G1 (HeLa cells) | % cells in cell cycle phase: G2/M (HeLa cells) | % cells in cell cycle phase: S (HeLa cells) | % cells in cell cycle phase: aneuploid (HeLa cells) | % cells in cell cycle phase: subG1 (HeLa cells) [%] | caspase activity (preadipocytes) |
| --- | --- | --- | --- | --- | --- | --- | --- | --- | --- | --- | --- | --- | --- |
| 327925 (antisense eT*eA*eG*e[5mC]*eT*eG*eG*eT*eT*eG*eA*eA*eG*eG*eG*eG*eA*e[5mC]*e[5mC]*eA*eA) [compound 327925] | 1.40 | 2.0 | – | – | – | – | – | – | – | – | – | – | – |
| 327888 (antisense eA*eA*eT*eG*e[5mC]*e[5mC]*e[5mC]*e[5mC]*eT*eA*eA*eA*eA*eA*eT*e[5mC]*e[5mC]*eT*eT*eA*eT) [compound 327888] | 1.38 | 1.1 | – | – | – | – | – | – | – | – | – | – | – |
| 327934 (antisense eG*eG*eT*eA*e[5mC]*eA*eA*eT*e[5mC]*eA*eA*e[5mC]*eG*eG*eT*e[5mC]*eG*eA*eT*eG*eG*eT) [compound 327934] | 1.25 | 2.0 | 55% and 77% | 87% and 118% | 160% and 137% | 85% and 66% | 278% and 204% | 62% and 66% | 152% and 155% | 156% and 148% | 92% and 117% | – | – |
| 327941 (antisense eA*eA*e[5mC]*e[5mC]*e[5mC]*eA*e[5mC]*e[5mC]*eG*eA*e[5mC]*eA*eG*e[5mC]*eA*eA*eT*eG*eA*eA*eT*eG*eT*eT) [compound 327941] | 0.54 | 1.3 | – | – | – | – | – | – | – | – | – | – | – |
| 327922 (antisense eT*e[5mC]*eA*eG*eT*eT*eT*eT*eG*e[5mC]*eA*eT*eG*eG*eA*eT*eT*eT*eG*e[5mC]*eA*e[5mC]*eA) [compound 327922] | 1.25 | 1.0 | 104% | 97% | 114% | 96% | 131% | 96% | 109% | 105% | 91% | 81 | – |
| 327901 (antisense eT*eG*eA*eG*e[5mC]*eT*eA*e[5mC]*eA*eG*eT*eG*e[5mC]*eT*eT*e[5mC]*eA*eT*e[5mC]*eT*e[5mC]*eA) [compound 327901] | 1.02 | 2.0 | 90% | 101% | 110% | 94% | 108% | 98% | 103% | 104% | 104% | 93 | – |
| 327889 (antisense eG*eT*eG*eG*eT*eA*eA*eT*e[5mC]*e[5mC]*e[5mC]*eT*eG*eG*e[5mC]*eA*eA*eT*eG*eT*eG*eA*eT) [compound 327889] | 1.05 | 1.1 | 82% | 104% | 87% | 102% | 122% | 78% | 130% | 137% | 101% | 133 | – |
| 327890 (antisense eA*eG*e[5mC]*eA*e[5mC]*eA*eA*eA*e[5mC]*eT*eA*e[5mC]*eT*eA*e[5mC]*e[5mC]*eT*e[5mC]*eA) [compound 327890] | 1.36 | 1.3 | – | – | – | – | – | – | – | – | – | – | – |
| 327931 (antisense eA*eA*e[5mC]*e[5mC]*eA*eT*eA*e[5mC]*eA*eA*e[5mC]*e[5mC]*eT*eA*e[5mC]*eT*eA*e[5mC]*e[5mC]*eT*e[5mC]*eA) [compound 327931] | 1.12 | 1.5 | – | – | – | – | – | – | – | – | – | – | – |
| 327893 (antisense eA*eA*e[5mC]*e[5mC]*eA*e[5mC]*eA*e[5mC]*eA*eA*e[5mC]*e[5mC]*eT*eA*e[5mC]*eT*eA*e[5mC]*e[5mC]*eT*e[5mC]*eA) [compound 327893] | 1.14 | 1.3 | – | – | – | – | – | – | – | – | – | – | – |
| 327967 (antisense eA*e[5mC]*eT*eG*eT*eA*e[5mC]*eA*eA*eA*e[5mC]*eT*eA*e[5mC]*eT*eA*e[5mC]*e[5mC]*eT*e[5mC]*eA) [compound 327967] | 1.22 | 1.5 | – | – | – | – | – | – | – | – | – | – | – |
| TGAGCTACAGTGCTTCATCTCA [ISIS 327901] (chemistry not given here) [uniform 2′-MOE PS; targets mir-143] | – | – | – | – | – | – | – | – | – | – | – | – | does not result in a significant increase in caspase activity |
| 327907 (antisense eA*eG*e[5mC]*e[5mC]*eT*eA*eT*e[5mC]*e[5mC]*eT*eG*eG*eA*eT*eT*eA*e[5mC]*eT*eT*eG*eA*eA) [compound 327907] | – | – | 75% | 119% | 111% | 77% | 224% | 92% | 115% | 111% | 94% | 116 | – |
